Data on 13 molecules can be found in patent US10806785B2, “Immunomodulator compounds and methods of use” (Incyte Corporation, priority 2016, dated 2020).

As a reminder, the IC50 is the concentration that gives 50% inhibition. Read a high IC50 as a need for much substance.

In this test the target is PD-1/PD-L1 (Homo sapiens (Human), UniProt Q9NZQ7). As to the kind of experiment: PD-1/PD-L1 binding assay (HTRF). A digest of the protocol: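 HTRF read-out (665/620 nm) after 60 min at 25 °C with 1 nM Eu anti-human IgG and 20 nM APC anti-His. Beforehand, inhibitors were preincubated 40 min with Fc-PD-1 (25-167, […] as listed) and His-PD-L1 (19-238, 10 nM) in PBS pH 7.4 with Tween-20, BSA, 1% DMSO; IC50 from log-concentration curve.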
Sequence of PD-1/PD-L1 (Q9NZQ7 19-238): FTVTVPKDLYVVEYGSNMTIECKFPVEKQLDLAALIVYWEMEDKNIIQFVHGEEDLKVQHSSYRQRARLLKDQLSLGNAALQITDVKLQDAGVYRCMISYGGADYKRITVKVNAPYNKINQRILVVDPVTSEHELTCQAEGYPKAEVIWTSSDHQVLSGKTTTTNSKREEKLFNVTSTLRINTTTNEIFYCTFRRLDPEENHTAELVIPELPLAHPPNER
Background: Time-resolved FRET reads energy transfer from a long-lived donor to a nearby acceptor.

`Cc1c(NC(=O)c2nc3c(n2C)CCN(CCO)C3)cccc1-c1cccc(NC(=O)c2nc3c(n2C)CCN(CC[C@H]2CC[C@H](C(=O)O)CC2)C3)c1Cl` [Example 132, trans-4-(2-(2-((2-chloro-3′-(5-(2-hydroxyethyl)-1-methyl-4,5,6,7-tetrahydro-1H-imidazo[4,5-c]pyridine-2-carboxamido)-2′-methyl-[1,1′-biphenyl]-3-yl)carbamoyl)-1-methyl-1,4,6,7-tetrahydro-5H-imidazo[4,5-c]pyridin-5-yl)ethyl)cyclohexane-1-carboxylic acid] registered an IC50 of at most 10 nM.

Molecule `CCC1(C(=O)O)CCC(N2CCc3c(nc(C(=O)Nc4cccc(-c5cccc(NC(=O)c6nc7c(n6C)CCN(C6CCOCC6)C7)c5Cl)c4C)n3C)C2)CC1` (stereo not shown) [Example 112, 4-(2-((2′-chloro-2-methyl-3′-(1-methyl-5-(tetrahydro-2H-pyran-4-yl)-4,5,6,7-tetrahydro-1H-imidazo[4,5-c]pyridine-2-carboxamido)-[1,1′-biphenyl]-3-yl)carbamoyl)-1-methyl-1,4,6,7-tetrahydro-5H-imidazo[4,5-c]pyridin-5-yl)-1-ethylcyclohexane-1-carboxylic acid] gave a concentration for half-maximal inhibition (IC50) of at most 10 nM. `C[C@H](O)CN1CCc2c(nc(C(=O)Nc3cccc(-c4cccc(NC(=O)c5nc6c(n5C)CCN(CC57CCC(C(=O)O)(CC5)C7)C6)c4Cl)c3Cl)n2C)C1` [Example 181, (S)-4-((2-(2,2′-dichloro-3′-(5-(2-hydroxypropyl)-1-methyl-4,5,6,7-tetrahydro-1H-imidazo[4,5-c]pyridine-2-carboxamido)biphenyl-3-ylcarbamoyl)-1-methyl-6,7-dihydro-1H-imidazo[4,5-c]pyridin-5(4H)-yl)methyl)bicyclo[2.2.1]heptane-1-carboxylic acid] gave an IC50 of at most 10 nM. Then `Cc1c(NC(=O)c2nc3c(n2C)CCN(CC2(CO)CC2)C3)cccc1-c1cccc(NC(=O)c2nc3c(n2C)CCN(C)C3)c1Cl` [Example 31, N-(2′-chloro-3′-(1,5-dimethyl-4,5,6,7-tetrahydro-1H-imidazo[4,5-c]pyridine-2-carboxamido)-2-methylbiphenyl-3-yl)-5-((1-(hydroxymethyl)cyclopropyl)methyl)-1-methyl-4,5,6,7-tetrahydro-1H-imidazo[4,5-c]pyridine-2-carboxamide], with at most 10 nM. As to `Cn1c(C(=O)Nc2cccc(-c3cccc(NC(=O)c4nc5c(n4C)CCN(C[C@H]4CC[C@H](C(=O)O)CC4)C5)c3Cl)c2Cl)nc2c1CCN(CCO)C2` [Example 65, trans-4-((2-((2,2′-dichloro-3′-(5-(2-hydroxyethyl)-1-methyl-4,5,6,7-tetrahydro-1H-imidazo[4,5-c]pyridine-2-carboxamido)-[1,1′-biphenyl]-3-yl)carbamoyl)-1-methyl-1,4,6,7-tetrahydro-5H-imidazo[4,5-c]pyridin-5-yl)methyl)cyclohexane-1-carboxylic acid], the IC50 is at most 10 nM.

As for `Cc1c(NC(=O)c2nc3c(n2C)CCN(C[C@H](O)CO)C3)cccc1-c1cccc(NC(=O)c2nc3c(n2C)CCN(C)C3)c1Cl` [Example 32, (S)—N-(2′-chloro-3′-(1,5-dimethyl-4,5,6,7-tetrahydro-1H-imidazo[4,5-c]pyridine-2-carboxamido)-2-methylbiphenyl-3-yl)-5-(2,3-dihydroxypropyl)-1-methyl-4,5,6,7-tetrahydro-1H-imidazo[4,5-c]pyridine-2-carboxamide], the half-maximal inhibitory concentration (IC50) was at most 10 nM. `Cc1c(NC(=O)c2nc3c(n2C)CCN(C)C3)cccc1-c1cccc(NC(=O)c2nc3c(n2C)CCN(CC24CCC(C(=O)O)(CC2)C4)C3)c1Cl` [Example 119, 4-((2-((2-chloro-3′-(1,5-dimethyl-4,5,6,7-tetrahydro-1H-imidazo[4,5-c]pyridine-2-carboxamido)-2′-methyl-[1,1′-biphenyl]-3-yl)carbamoyl)-1-methyl-1,4,6,7-tetrahydro-5H-imidazo[4,5-c]pyridin-5-yl)methyl)bicyclo[2.2.1]heptane-1-carboxylic acid] gave an IC50 of at most 10 nM. Then `CN1CCc2c(nc(C(=O)Nc3cccc(-c4cccc(NC(=O)c5nc6c(n5C)CCN(CCc5ccc(C(=O)O)cc5)C6)c4Cl)c3Cl)n2C)C1` [Example 78, 4-(2-(2-((2,2′-dichloro-3′-(1,5-dimethyl-4,5,6,7-tetrahydro-1H-imidazo[4,5-c]pyridine-2-carboxamido)-[1,1′-biphenyl]-3-yl)carbamoyl)-1-methyl-1,4,6,7-tetrahydro-5H-imidazo[4,5-c]pyridin-5-yl)ethyl)benzoic acid], with at most 10 nM; and `C[C@@H](O)CN1CCc2c(nc(C(=O)Nc3cccc(-c4cccc(NC(=O)c5nc6c(n5C)CCN(C[C@H]5CC[C@@H](C(=O)O)CC5)C6)c4Cl)c3Cl)n2C)C1` [Example 76, cis-4-((2-((2,2′-dichloro-3′-(5-((R)-2-hydroxypropyl)-1-methyl-4,5,6,7-tetrahydro-1H-imidazo[4,5-c]pyridine-2-carboxamido)-[1,1′-biphenyl]-3-yl)carbamoyl)-1-methyl-1,4,6,7-tetrahydro-5H-imidazo[4,5-c]pyridin-5-yl)methyl)cyclohexane-1-carboxylic acid], with at most 10 nM; and `CCN1CCc2c(nc(C(=O)Nc3cccc(-c4cccc(NC(=O)c5nc6c(n5C)CCN(CC57CCC(C(=O)O)(CC5)C7)C6)c4Cl)c3Cl)n2C)C1` [Compound 176, 4-((2-(2,2′-dichloro-3′-(5-ethyl-1-methyl-4,5,6,7-tetrahydro-1H-imidazo[4,5-c]pyridine-2-carboxamido)biphenyl-3-ylcarbamoyl)-1-methyl-6,7-dihydro-1H-imidazo[4,5-c]pyridin-5(4H)-yl)methyl)bicyclo[2.2.1]heptane-1-carboxylic acid], with at most 10 nM. The figure for `Cn1c(C(=O)Nc2cccc(-c3cccc(NC(=O)c4nc5c(n4C)CCN(C[C@H]4CC[C@H](C(=O)O)CC4)C5)c3Cl)c2Cl)nc2c1CCN(CC1CC1)C2` [Example 63, trans-4-((2-(2,2′-dichloro-3′-(5-(cyclopropylmethyl)-1-methyl-4,5,6,7-tetrahydro-1H-imidazo[4,5-c]pyridine-2-carboxamido)biphenyl-3-ylcarbamoyl)-1-methyl-6,7-dihydro-1H-imidazo[4,5-c]pyridin-5(4H)-yl)methyl)cyclohexane-1-carboxylic acid] is at most 10 nM.

The molecule `CCN(C)CC(=O)N1Cc2nc(-c3cccc(-c4cccc(NC(=O)c5nc6c(n5C)CCN(C[C@H]5CC[C@H](C(=O)O)CC5)C6)c4Cl)c3Cl)oc2C1` [Compound 172, trans-4-((2-((2,2′-dichloro-3′-(5-(N-ethyl-N-methylglycyl)-5,6-dihydro-4H-pyrrolo[3,4-d]oxazol-2-yl)-[1,1′-biphenyl]-3-yl)carbamoyl)-1-methyl-1,4,6,7-tetrahydro-5H-imidazo[4,5-c]pyridin-5-yl)methyl)cyclohexane-1-carboxylic acid] yielded an IC50 of at most 10 nM. The molecule `Cn1c(C(=O)Nc2cccc(-c3cccc(NC(=O)c4nc5c(n4C)CCN(C4CCOCC4)C5)c3Cl)c2Cl)nc2c1CCN(CCc1ccc(C(=O)O)cc1)C2` [Example 96, 4-(2-(2-((2,2′-dichloro-3′-(1-methyl-5-(tetrahydro-2H-pyran-4-yl)-4,5,6,7-tetrahydro-1H-imidazo[4,5-c]pyridine-2-carboxamido)-[1,1′-biphenyl]-3-yl)carbamoyl)-1-methyl-1,4,6,7-tetrahydro-5H-imidazo[4,5-c]pyridin-5-yl)ethyl)benzoic acid] returned an IC50 of at most 10 nM.
